What was measured:
aromatase = target: T1, aromatase (Homo sapiens, UniProt P11511); assay: Aromatase inhibition assay; type: biochemical
T1 sequence (P11511 1-503): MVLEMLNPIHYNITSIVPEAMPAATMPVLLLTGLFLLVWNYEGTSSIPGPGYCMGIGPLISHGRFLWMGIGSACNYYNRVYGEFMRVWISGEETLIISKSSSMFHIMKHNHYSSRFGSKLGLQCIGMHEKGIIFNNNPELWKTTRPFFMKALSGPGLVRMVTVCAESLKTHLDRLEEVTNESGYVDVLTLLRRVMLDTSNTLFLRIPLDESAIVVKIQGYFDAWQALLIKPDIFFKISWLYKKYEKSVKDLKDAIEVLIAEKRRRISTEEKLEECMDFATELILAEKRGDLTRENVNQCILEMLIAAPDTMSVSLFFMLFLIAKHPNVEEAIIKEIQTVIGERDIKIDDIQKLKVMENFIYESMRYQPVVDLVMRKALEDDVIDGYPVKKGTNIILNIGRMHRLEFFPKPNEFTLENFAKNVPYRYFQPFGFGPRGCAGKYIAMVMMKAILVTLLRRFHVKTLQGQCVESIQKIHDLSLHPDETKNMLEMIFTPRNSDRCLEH

[1] = test system: quinone reductase 1 (QR1); assay: QR1 induction assay; type: cell-based; details: for fold induction at 50 µM: read-out: QR1 IR (induction ratio), induction ratio at a concentration of 50 μM

Structure (SMILES) | Anti-aromatase activity (in words) (aromatase) | QR1 induction activity (in words) [1] | other results
c1ccc2[nH]c(-c3ccsc3)cc2c1 [Compound 22] | did not show encouraging activity | inactive | 
O=c1cc(-c2ccc(Br)cc2)oc2ccccc12 [4′-bromoflavone, reference compound] |  |  | EC (2-fold activity) ([1]; read-out: QR1 CD (concentration that double the activity)): 0.01 µM
c1ccc(C2Cc3ccccc3N2)cc1 (stereo not shown) [Compound 1f, 2-phenylindoline] | did not show significant activity | weak activity | 
c1ccc(-c2nc3ccccc3[nH]2)cc1 [Compound 34, 2-phenylbenzimidazole, reference compound] | not active |  | 
COc1ccc2ccc(-c3cc4ccccc4[nH]3)cc2c1 [Compound 23] | did not show encouraging activity | inactive | 
Fc1cc(F)cc(-c2cc3ccccc3[nH]2)c1 [Compound 15] |  | inactive | 
Clc1ccccc1-c1cc2ccccc2[nH]1 [Compound 9] |  |  | fold induction at 50 µM [1]: < 1.5
COc1cc(OC)cc(-c2cc3ccccc3[nH]2)c1 [Compound 7] |  |  | Fold increase in QR1 induction activity over 1 ([1]; relative to 1): 2 fold
CN(C)c1ccc(-c2cc3ccccc3[nH]2)cc1 [Compound 20] |  | inactive | 
Cn1c(-c2ccc(Cl)c(Cl)c2)cc2cc([N+](=O)[O-])ccc21 [Compound 31a] | not active |  | 
c1ccc(-c2cc3ccccc3[nH]2)cc1 [Compound 1, 2-phenylindole] | only slight activity | very good QR1 induction activity | 
Nc1ccc(-c2cc3ccccc3[nH]2)cc1 [Compound 18] |  | inactive | 
Cc1ccccc1-c1cc2cc([N+](=O)[O-])ccc2[nH]1 [Compound 25] |  |  | fold induction at 50 µM [1]: < 1.5
CCCCCc1ccc(-c2cc3ccccc3[nH]2)cc1 [Compound 17] |  | inactive | 
O=[N+]([O-])c1ccc2[nH]c(-c3ccc(Cl)c(Cl)c3)cc2c1 [Compound 31] | totally destroyed aromatase activity |  | 
Clc1ccc(-c2cc3ccccc3[nH]2)cc1Cl [Compound 8] |  | inactive | 
N#Cc1c(-c2ccccc2)[nH]c2ccccc12 [Compound 2d, 3-cyano-2-phenylindole] |  |  | IC50 (aromatase): 1610 ± 200 nM; inhibition at 50 µM (aromatase; read-out: Aromatase % inhibition): 88 ± 1.07%; fold induction at 50 µM [1]: 0.55 ± 0.64
Cn1c(-c2ccccc2)cc2cc([N+](=O)[O-])ccc21 [Compound 24a] |  |  | Fold increase in aromatase activity over free NH derivative 24 (aromatase; relative to 24): 2 fold
c1cncc(-c2cc3ccccc3[nH]2)c1 [Compound 21] |  | inactive | 

Source: PMC5705205 (Bioorganic & medicinal chemistry letters, 2017)
